Measured values taken from PMC11481871, “Discovery of GuaB inhibitors with efficacy against Acinetobacter baumannii infection” (mBio, 2024).
Converted amounts (≈) assume the structure as drawn. “And” between values parts separate entries of the source, which are not always exact repeats. Equal values may be shown once. Read-outs that look alike come from different tables or passages of the source.

Experiments:
Proteus mirabilis = experiment: MIC, CLSI microdilution; assay type: cell-based; details: 20 h; Proteus mirabilis (ATCC29906); M9 + casamino acids + glucose
Klebsiella pneumoniae = experiment: MIC, CLSI microdilution; assay type: cell-based; details: ATCC43816, 20 h; Klebsiella pneumoniae (ATCC 43816); M9 + casamino acids + glucose
Staphylococcus aureus = experiment: MIC, CLSI microdilution; assay type: cell-based; details: NRS 384 / USA300; Staphylococcus aureus USA300 NRS384; RPMI1640
Mycobacterium marinum = experiment: MIC, CLSI microdilution; assay type: cell-based; details: 7H9 + OADC, 48 h
S. aureus GuaB = S. aureus GuaB (Staphylococcus aureus, UniProt P99106); experiment: GuaB biochemical IC50
Mycobacterium smegmatis = experiment: MIC, CLSI microdilution; assay type: cell-based; details: Mycolicibacterium smegmatis; Mycobacterium smegmatis mc2-155; 7H9 + OADC, 48 h
[1] = test system: Stenotrophomonas maltophilia; experiment: MIC, CLSI microdilution; assay type: cell-based; details: 20 h; Stenotrophomonas maltophilia (ATCC700267); M9 + casamino acids + glucose
Pseudomonas aeruginosa = experiment: MIC, CLSI microdilution; assay type: cell-based; details: 20 h; Pseudomonas aeruginosa PAO1; M9 + casamino acids + glucose
hERG = target: T1, hERG (Homo sapiens, UniProt Q12809); experiment: hERG 2-point automatic patch clamp assay; assay type: cell-based
T1 construct: expressed in transfected cells; host or cells: HEK293
Protocol: All chemicals used in solution preparation were purchased from Sigma-Aldrich (St. Louis, MO) unless otherwise noted. Test article and positive control concentrations were prepared fresh daily by diluting stock solutions into a HEPES-buffered physiological saline solution (composition in mM): NaCl, 137; KCl, 4.0; CaCl2, 1.8; MgCl2, 1; HEPES, 10; glucose, 10; pH adjusted to 7.4 with NaOH. HEK293 cells were stably transfected with hERG cDNA and maintained in the culture medium with the appropriate selection pressure and antibiotics. All experiments were performed at room temperature. […]
In preparation for a recording session, intracellular solution was loaded into the intracellular compartments of the QPlate and cell suspension was pipetted into the extracellular compartments. After establishment of a whole-cell configuration, membrane currents were recorded using up to 48 parallel patch clamp amplifiers in the QPatch HT system. The current records were sampled at 2,000 Hz and low-pass Bessel filtered at 400 Hz. Onset and block of hERG current were measured using a stimulus voltage pattern consisting of a 500 ms prepulse to –40 mV (leakage subtraction), a 2-s activating pulse to +40 mV, followed by a 2-s test pulse to −40 mV. The pulse pattern was repeated continuously at 10-s intervals, from a holding potential of −80 mV. Peak tail current (upper panel) was measured during the −40 mV test pulse. Leakage current was calculated from the current amplitude evoked by the prepulse and subtracted from the total membrane current record. Data acquisition and analysis was performed using the QPatch Assay Software (Sophion Bioscience A/S, Denmark). Solubility of all compounds was measured using TurboSol in conjunction with the ion channel testing.

Citrobacter werkmanii = experiment: MIC, CLSI microdilution; assay type: cell-based; details: 20 h; Citrobacter werkmanii (ATCC51114); M9 + casamino acids + glucose
[2] = test system: Primary human hepatocytes; experiment: in vitro; assay type: cell-based
Protocol: (§1) Primary human hepatocytes were plated on 384-well, collagen-coated plates in incubation media with no serum or with 10% fetal bovine serum (FBS). Eighteen hours later, cells were treated with the test article at seven concentrations starting at 100 µM in twofold dilutions, chlorpromazine (positive control) at seven concentrations starting at 100 µM in twofold dilutions or aflatoxin (positive control) at seven concentrations starting at 25 µM in twofold dilutions. Cell viability was then assayed using the Promega Cell TiterGlo ATP Assay.

in vitro = assay type: cell-based, human; details: human
Protocol: as §1

[3] = test system: 41 different cellular targets; experiment: Secondary pharmacology panel (Cerep Eurofins); assay type: binding; details: for Hits (>50% Binding) / Hits (>75% Binding): 41 targets
[4] = test system: Mycobacterium tuberculosis H37Rv; experiment: MIC, resazurin redox assay; assay type: cell-based; details: ATCC 27294 / H37Rv, 192 h, Mycobacterium tuberculosis H37Rv (ATCC27294)
[5] = test system: A. baumannii 19606 (wild-type); experiment: microbe, parasite or virus in culture; assay type: cell-based, Acinetobacter baumannii; details: for MIC: Acinetobacter baumannii
[6] = test system: Acinetobacter baumannii ATCC19606 GuaB mutants; experiment: MIC on GuaBi-resistant A. baumannii 19606 guaB mutants; assay type: cell-based; details: for MIC: Acinetobacter baumannii; for Fold shift in MIC vs parental wild-type / MIC of resistant mutant: from fluctuation assay
Bacillus subtilis = experiment: MIC, CLSI microdilution; assay type: cell-based; details: RPMI1640
E. coli GuaB = E. coli GuaB (Escherichia coli, UniProt P0ADG7); experiment: GuaB biochemical IC50
Enterobacter aerogenes = experiment: MIC, CLSI microdilution; assay type: cell-based; details: Klebsiella aerogenes, 20 h; Enterobacter aerogenes (ATCC13048); M9 + casamino acids + glucose
A. baumannii GuaB = A. baumannii GuaB (Acinetobacter baumannii, UniProt D0CF46); experiment: GuaB biochemical IC50
Enterococcus faecium = experiment: MIC, CLSI microdilution; assay type: cell-based; details: Enterococcus faecium (ATCC700221); RPMI1640

T1 sequence (Q12809 whole entry): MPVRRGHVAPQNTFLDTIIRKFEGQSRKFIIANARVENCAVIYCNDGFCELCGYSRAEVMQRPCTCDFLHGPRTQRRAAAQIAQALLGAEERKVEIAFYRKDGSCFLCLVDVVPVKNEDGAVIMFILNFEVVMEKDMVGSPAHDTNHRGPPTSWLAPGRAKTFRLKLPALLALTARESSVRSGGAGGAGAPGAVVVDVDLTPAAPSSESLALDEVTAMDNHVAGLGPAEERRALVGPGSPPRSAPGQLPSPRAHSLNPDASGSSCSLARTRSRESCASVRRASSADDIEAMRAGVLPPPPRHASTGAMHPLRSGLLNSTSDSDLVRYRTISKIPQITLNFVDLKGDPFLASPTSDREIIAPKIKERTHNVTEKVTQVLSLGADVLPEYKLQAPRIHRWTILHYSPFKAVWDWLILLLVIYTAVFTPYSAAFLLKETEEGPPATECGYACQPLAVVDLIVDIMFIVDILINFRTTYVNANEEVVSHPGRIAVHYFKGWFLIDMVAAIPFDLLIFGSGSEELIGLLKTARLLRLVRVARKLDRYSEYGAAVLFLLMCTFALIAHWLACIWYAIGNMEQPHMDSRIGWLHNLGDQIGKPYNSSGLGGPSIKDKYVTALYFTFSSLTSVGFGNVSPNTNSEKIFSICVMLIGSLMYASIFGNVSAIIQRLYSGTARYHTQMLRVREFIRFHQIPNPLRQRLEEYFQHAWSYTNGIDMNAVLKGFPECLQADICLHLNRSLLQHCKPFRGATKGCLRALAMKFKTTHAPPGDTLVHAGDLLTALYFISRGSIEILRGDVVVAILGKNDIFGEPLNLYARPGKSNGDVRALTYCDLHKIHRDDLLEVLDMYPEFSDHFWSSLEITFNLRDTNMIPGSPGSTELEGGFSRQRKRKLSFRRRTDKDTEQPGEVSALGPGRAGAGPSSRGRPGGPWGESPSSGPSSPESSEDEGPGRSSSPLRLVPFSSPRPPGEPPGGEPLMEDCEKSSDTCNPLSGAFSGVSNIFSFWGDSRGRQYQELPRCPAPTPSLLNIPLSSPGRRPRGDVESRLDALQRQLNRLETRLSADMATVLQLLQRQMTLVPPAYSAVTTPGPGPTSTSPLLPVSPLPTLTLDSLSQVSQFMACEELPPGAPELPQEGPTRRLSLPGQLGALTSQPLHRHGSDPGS
Chain of S. aureus GuaB (P99106 whole entry): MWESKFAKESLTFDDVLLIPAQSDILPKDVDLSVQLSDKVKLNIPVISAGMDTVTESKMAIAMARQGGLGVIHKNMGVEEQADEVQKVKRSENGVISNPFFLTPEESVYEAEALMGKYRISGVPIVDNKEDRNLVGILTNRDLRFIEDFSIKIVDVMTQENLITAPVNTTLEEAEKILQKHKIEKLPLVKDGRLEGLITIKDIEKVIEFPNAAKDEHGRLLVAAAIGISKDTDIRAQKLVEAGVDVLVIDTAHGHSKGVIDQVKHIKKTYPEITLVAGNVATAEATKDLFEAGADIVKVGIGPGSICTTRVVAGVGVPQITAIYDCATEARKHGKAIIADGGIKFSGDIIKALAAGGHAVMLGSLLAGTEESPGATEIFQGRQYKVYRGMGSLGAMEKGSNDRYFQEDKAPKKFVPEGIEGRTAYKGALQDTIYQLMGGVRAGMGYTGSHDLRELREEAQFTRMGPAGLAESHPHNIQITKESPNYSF
Chain of E. coli GuaB (P0ADG7 whole entry): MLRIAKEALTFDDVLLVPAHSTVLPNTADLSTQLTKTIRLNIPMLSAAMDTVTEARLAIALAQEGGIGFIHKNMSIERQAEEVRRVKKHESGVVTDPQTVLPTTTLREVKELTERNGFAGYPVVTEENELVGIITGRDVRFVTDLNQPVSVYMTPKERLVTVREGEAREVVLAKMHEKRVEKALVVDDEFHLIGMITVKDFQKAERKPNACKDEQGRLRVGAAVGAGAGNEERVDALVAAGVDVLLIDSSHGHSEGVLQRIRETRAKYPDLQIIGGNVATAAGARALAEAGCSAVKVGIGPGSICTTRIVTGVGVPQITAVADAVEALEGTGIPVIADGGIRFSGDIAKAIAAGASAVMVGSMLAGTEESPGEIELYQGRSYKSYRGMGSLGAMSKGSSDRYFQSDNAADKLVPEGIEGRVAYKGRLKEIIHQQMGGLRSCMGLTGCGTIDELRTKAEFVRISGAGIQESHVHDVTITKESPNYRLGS
Chain of A. baumannii GuaB (D0CF46 entry or part of it): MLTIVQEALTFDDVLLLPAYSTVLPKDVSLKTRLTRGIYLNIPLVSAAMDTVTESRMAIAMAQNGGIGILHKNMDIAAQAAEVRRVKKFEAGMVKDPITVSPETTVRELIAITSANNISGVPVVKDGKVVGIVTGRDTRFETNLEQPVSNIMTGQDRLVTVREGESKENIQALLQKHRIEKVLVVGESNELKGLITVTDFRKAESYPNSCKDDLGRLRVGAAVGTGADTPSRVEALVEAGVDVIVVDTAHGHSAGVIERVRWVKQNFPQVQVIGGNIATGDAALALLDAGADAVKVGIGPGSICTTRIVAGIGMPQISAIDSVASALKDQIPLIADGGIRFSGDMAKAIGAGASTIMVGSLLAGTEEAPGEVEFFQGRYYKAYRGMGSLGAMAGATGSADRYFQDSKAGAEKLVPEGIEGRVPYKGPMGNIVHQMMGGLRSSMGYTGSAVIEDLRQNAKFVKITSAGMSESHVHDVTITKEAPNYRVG

C[C@H](Nc1ccc2ncc(CO)cc2c1)C(=O)Nc1ccc(Cl)c(N(C)C)c1 [G2, (2S)-N-[4-chloro-3-(dimethylamino)phenyl]-2-[[3-(hydroxymethyl)-6-quinolyl]amino]propanamide]
MIC (Proteus mirabilis): > 100 µM | MIC (Klebsiella pneumoniae): > 100 µM | MIC (Staphylococcus aureus): 1.6 µM (≈ 0.638 µg/mL) | MIC (Mycobacterium marinum): 0.1 µM | IC50 (S. aureus GuaB): 3.4 nM | MIC (Mycobacterium smegmatis): 1.3 µM | MIC [1]: 38 µM | MIC (Pseudomonas aeruginosa): > 100 µM | hERG 1µM (hERG; 1µM): 1.70% | hERG 10µM (hERG; 10µM): 8.60% | hERG 50µM (hERG; 50µM): *48.5% | MIC (Citrobacter werkmanii): > 100 µM | in vitro safety profile: cytotoxicity [2]: low cytotoxicity | IC50 at 2 day (in vitro; General cytotoxicity IC50, Serum): > 100000 nM | IC50 at 2 day (in vitro; General cytotoxicity IC50, Serum-Free): > 100000 nM | in vitro safety profile: promiscuity [3]: low promiscuity | in vitro safety profile: selectivity [3]: good selectivity | Promiscuity Risk ([3]; 10µM): 0% | Selectivity Risk ([3]; 10µM): 0% | Hits (>50% Binding) ([3]; 10µM): 0 | Hits (>75% Binding) ([3]; 10µM): 0 | Promiscuity Risk ([3]; 50µM): 0% | Selectivity Risk ([3]; 50µM): 3% | Hits (>50% Binding) ([3]; 50µM): 1 | Hits (>75% Binding) ([3]; 50µM): 0 | MIC [4]: 2.5 µM (≈ 0.997 µg/mL) | MIC ([5]; 24 h, M9 media + 100µM guanine, 24 hours, read-out: A.b.19606 Average CLSI MIC (n=3)): > 100 µM | MIC ([5]; 24 h, M9 media, 24 hours, read-out: A.b.19606 Average CLSI MIC (n=3)): 4.2 µM (≈ 1.68 µg/mL) | MIC ([5]; A. baumannii 19606 wild-type (Fig 3D), read-out: Avg. MIC): 2 µM (≈ 0.798 µg/mL) | MIC ([5]; guaB allele wild-type, M9 media (cross-resistance table), read-out: A.b.19606 Average CLSI MIC (n=3)): 4.2 µM (≈ 1.68 µg/mL) | GuaBi CLSI MIC fold change from parent strain ([5]; guaB allele wild-type): 1 | MIC ([6]; ATCC19606, read-out: A.b.19606 Average CLSI MIC (n=3), guaB allele P25A, M9 media): 66.7 µM (≈ 26.6 µg/mL) | MIC ([6]; ATCC19606, read-out: A.b.19606 Average CLSI MIC (n=3), guaB allele P25S, M9 media): 66.7 µM (≈ 26.6 µg/mL) | MIC ([6]; ATCC19606, read-out: A.b.19606 Average CLSI MIC (n=3), guaB allele Y445C, M9 media): 50 µM (≈ 19.9 µg/mL) | MIC ([6]; ATCC19606, read-out: A.b.19606 Average CLSI MIC (n=3), guaB allele Y445N, M9 media): > 100 µM | MIC ([6]; ATCC19606, read-out: A.b.19606 Average CLSI MIC (n=3), guaB allele Y445S, M9 media): > 100 µM | MIC ([6]; ATCC19606, read-out: MIC of resistant mutant, resistance allele P25A, from fluctuation assay): 50 µM | MIC ([6]; ATCC19606, read-out: MIC of resistant mutant, resistance allele P25S, from fluctuation assay): 50 µM | MIC ([6]; ATCC19606, read-out: MIC of resistant mutant, resistance allele Y445C, from fluctuation assay): 50 µM | MIC ([6]; ATCC19606, read-out: MIC of resistant mutant, resistance allele Y445S, from fluctuation assay): 100 µM | shifts in MIC conferred by on-target mutations ([6]; GuaBi-resistant mutants): ≥ 32 fold | GuaBi CLSI MIC fold change from parent strain ([6]; guaB allele P25A): 16 | GuaBi CLSI MIC fold change from parent strain ([6]; guaB allele P25S): 16 | GuaBi CLSI MIC fold change from parent strain ([6]; guaB allele Y445C): 12 | GuaBi CLSI MIC fold change from parent strain ([6]; guaB allele Y445N): >25 | GuaBi CLSI MIC fold change from parent strain ([6]; guaB allele Y445S): >25 | Fold shift in MIC vs parental wild-type ([6]; resistance allele P25A): 32, 32, 32 | Fold shift in MIC vs parental wild-type ([6]; resistance allele P25S): 32, 32, 32 and 32 | MIC of resistant mutant ([6]; resistance allele P25S): 50 µM | Fold shift in MIC vs parental wild-type ([6]; resistance allele Y445C): 32, 32, 32 and 64 | MIC of resistant mutant ([6]; resistance allele Y445C): 100 µM | Fold shift in MIC vs parental wild-type ([6]; resistance allele Y445S): 64 | MIC (Bacillus subtilis): 13.8 µM (≈ 5.5 µg/mL) | IC50 (E. coli GuaB): 16 nM | MIC (Enterobacter aerogenes): > 100 µM | IC50 (A. baumannii GuaB): 0.63 nM | MIC (Enterococcus faecium): 5.2 µM (≈ 2.07 µg/mL)
